Laboratory results taken from patent US20240239811A1, “5-(5-(PIPERIDIN-4-YL)THIENO[3,2-C]PYRAZOL-2-YL]INDAZOLE DERIVATIVES AND RELATED COMPOUNDS AS MODULATORS FOR SPLICING NUCLEIC ACIDS AND FOR THE T” (REMIX THERAPEUTICS INC., priority 2020, published 2024).
Where a name gives a salt, the structure may show the parent alone. Values belong to the compound of their own block, whether it stands above or below them.

Assays:
Format in all cases: cell-based
[1] = system: SMN2 CJ mRNA; experiment: Gene panel canonical junction qPCR assay, SMN2; settings: Table 6, decrease in CJ mRNA, read-out: SMN2 IC50 (decrease in CJ mRNA levels)
How it was run: (§1)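 A673 or K562 cells treated 24 h at 37° C with 11-point 3-fold dilutions, top 10 uM, DMSO ≤0.25%. CJ mRNA quantified by RT-qPCR with exon-junction-spanning probeset, ΔΔCt vs housekeeping gene (GAPDH, GUSB or PPIA) and DMSO control. IC50 from 4-parameter fit of percentage CJ decrease.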

[2] = system: HTT CJ mRNA; experiment: Gene panel canonical junction qPCR assay, HTT; settings: Table 6, decrease in CJ mRNA, read-out: HTT IC50 (decrease in CJ mRNA levels)
How it was run: as §1

[3] = system: Target C CJ mRNA; experiment: Gene panel canonical junction qPCR assay, Target C; settings: Table 6, decrease in CJ mRNA, read-out: Target C IC50 (decrease in CJ mRNA levels)
How it was run: as §1

[4] = system: HTT mRNA; experiment: Splicing assay (RT-qPCR) monitoring HTT splice variants, canonical (CJ) and alternative (AJ) junction; settings: 50% response, A673 or K562 cell line, 24 hours; for IC50: decrease in CJ mRNA; for AC50: increase in AJ mRNA
How it was run: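 A673 or K562 cells were treated 24 h with an 11-point 3-fold dilution series (top 10 uM, ≤0.25% DMSO) at 37 °C. HTT canonical- and alternative-junction mRNAs were quantified in lysates by one-step RT-qPCR. Values were normalized to PPIA (A673) or GAPDH/GUSB (K562).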

Structure (SMILES): Cn1cc2ccc(-c3nc4sc(C5CCNCC5)cc4s3)cc2n1 [Compound 127, 2-methyl-6-[5-(piperidin-4-yl)thieno [2,3-d][1,3]thiazol-2-yl]indazole hydrochloride]
IC50 [1]: 1000 to 10000 nM | IC50 [2]: 1000 to 10000 nM | IC50 [3]: 1000 to 10000 nM | IC50 [4]: 1000 to 10000 nM | AC50 [4]: 1000 to 10000 nM

Structure (SMILES): Cn1cc2cc(-c3nc4sc(N5CCC56CCNC6)cc4s3)cc(F)c2n1 (stereo not drawn) [Compound 200, 5-(5-{1,6-diazaspiro[3.4]octan-1-yl}thieno[2,3-d][1,3]thiazol-2-yl)-7-fluoro-2-methy-lindazole]
IC50 [1]: 1000 to 10000 nM | IC50 [2]: > 10000 nM | IC50 [3]: > 10000 nM | IC50 [4]: > 10000 nM | AC50 [4]: > 10000 nM

Structure (SMILES): Cc1cn2nc(-c3nc4sc(C5CCNCC5)cc4s3)cc2c(C)n1 [Compound 133, 4-(2-[4,6-dimethylpyrazolo[1,5-a]pyrazin-2-yl]thieno[2,3-d][1,3]thiazol-5-yl)piperidine]
IC50 [1]: 100 to 1000 nM | IC50 [2]: 100 to 1000 nM | IC50 [3]: 100 to 1000 nM | IC50 [4]: 100 to 1000 nM | AC50 [4]: 100 to 1000 nM

Structure (SMILES): Cn1cc2cc(-c3nc4sc(N5CCC56CCCNC6)cc4s3)cc(F)c2n1 (stereo not drawn) [Compound 202, 1-[2-(7-fluoro-2-methylindazol-5-yl)thieno[2,3-d][1,3]thiazol-5-yl]-1,6-diazaspiro[3.5]nonane]
IC50 [1]: 1000 to 10000 nM | IC50 [2]: > 10000 nM | IC50 [3]: 1000 to 10000 nM | IC50 [4]: > 10000 nM | AC50 [4]: > 10000 nM

Structure (SMILES): Cc1cn2cc(-n3cc4sc(C5CCNCC5)cc4n3)cc(Cl)c2n1 [Compound 172]
IC50 [1]: 100 to 1000 nM | IC50 [2]: 100 to 1000 nM | IC50 [3]: 1000 to 10000 nM | IC50 [4]: 100 to 1000 nM | AC50 [4]: 100 to 1000 nM

Structure (SMILES): Cc1cn2nc(-n3cc4cc(C5CCNCC5)sc4n3)cc2c(C)n1 [Compound 164]
IC50 [1]: 1000 to 10000 nM | IC50 [2]: 1000 to 10000 nM | IC50 [3]: 1000 to 10000 nM | IC50 [4]: 1000 to 10000 nM | AC50 [4]: 1000 to 10000 nM

Structure (SMILES): Cn1cc2cc(-n3cc4cc(C5CCNCC5)sc4n3)c(O)cc2n1 [Compound 220]
IC50 [1]: 1000 to 10000 nM | IC50 [2]: 1000 to 10000 nM | IC50 [3]: 1000 to 10000 nM | IC50 [4]: 1000 to 10000 nM | AC50 [4]: 1000 to 10000 nM

Structure (SMILES): c1n[nH]cc1-n1cc2cc(C3CCNCC3)sc2n1 [Compound 180]
IC50 [1]: > 10000 nM | IC50 [2]: > 10000 nM | IC50 [3]: > 10000 nM | IC50 [4]: > 10000 nM | AC50 [4]: > 10000 nM

Structure (SMILES): Cn1cc2cc(-c3cc4cn(C5CNC5)nc4s3)cc(F)c2n1 [Compound 184]
IC50 [1]: 100 to 1000 nM | IC50 [2]: 1000 to 10000 nM | IC50 [3]: > 10000 nM | IC50 [4]: 1000 to 10000 nM | AC50 [4]: 1000 to 10000 nM

Structure (SMILES): Cn1cc2cc(-c3nc4sc(C5(O)CCNCC5)cc4s3)cc(F)c2n1 [Compound 236, 4-[2-(7-fluoro-2-methylindazol-5-yl)thieno[2,3-d] [1,3]thiazol-5-yl] piperidin-4-ol]
IC50 [1]: 100 to 1000 nM | IC50 [2]: 100 to 1000 nM | IC50 [3]: 1000 to 10000 nM | IC50 [4]: 100 to 1000 nM | AC50 [4]: 1000 to 10000 nM

Structure (SMILES): Cn1cc2cc(-c3cc4cn(C5CCNCC5)nc4s3)c(C#N)cc2n1 [Compound 211]
IC50 [1]: 100 to 1000 nM | IC50 [2]: 1000 to 10000 nM | IC50 [3]: 1000 to 10000 nM | IC50 [4]: 1000 to 10000 nM | AC50 [4]: 1000 to 10000 nM

Structure (SMILES): Cc1cn2nc(-c3nc4sc(C5CNC5)cc4s3)cc(C)c2n1 [Compound 235, 3-(2-{2,8-dimethylimidazo[1,2-b]pyridazin-6-yl}thieno[2,3-d] [1,3]thiazol-5-yl) azetidine]
IC50 [1]: 100 to 1000 nM | IC50 [2]: 1000 to 10000 nM | IC50 [3]: 1000 to 10000 nM | IC50 [4]: 1000 to 10000 nM | AC50 [4]: 1000 to 10000 nM

Structure (SMILES): CC1CN(c2cc3sc(-c4cc(F)c5nn(C)cc5c4)nc3s2)CCN1C (stereo not drawn) [Compound 128, 5-[5-(3,4-dimethylpiperazin-1-yl)thieno[2,3-d][1,3]thiazol-2-yl]-7-fluoro-2-methylindazole]
IC50 [1]: 100 to 1000 nM | IC50 [2]: 1000 to 10000 nM | IC50 [3]: 1000 to 10000 nM | IC50 [4]: 1000 to 10000 nM | AC50 [4]: 1000 to 10000 nM

Structure (SMILES): Cc1cn2nc(-c3cc4sc(C5CCNCC5)nc4s3)cc(C)c2n1 [Compound 125, 4-(5-[2,8-dimethylimidazo[1,2-b]pyridazin-6-yl]thieno [2,3-d][1,3]thiazol-2-yl) piperidine]
IC50 [1]: 100 to 1000 nM | IC50 [2]: 100 to 1000 nM | IC50 [3]: 1000 to 10000 nM | IC50 [4]: 100 to 1000 nM | AC50 [4]: 100 to 1000 nM

Continued, in another order:

IC50 [1]: 100 to 1000 nM | IC50 [2]: 1000 to 10000 nM | IC50 [3]: 1000 to 10000 nM | IC50 [4]: 1000 to 10000 nM
Structure (SMILES): Cn1cc2cc(-c3nc4sc(N5CCC(NC(C)(C)C)C5)cc4s3)cc(F)c2n1 (stereo not drawn) [Compound 143, N-tert-butyl-1-[2-(7-fluoro-2-methylindazol-5-yl)thieno[2,3-d][1,3]thiazol-5-yl]pyrrolidin-3-amine]
AC50 [4]: 1000 to 10000 nM

IC50 [1]: < 100 nM | IC50 [2]: < 100 nM | IC50 [3]: 100 to 1000 nM | IC50 [4]: < 100 nM
Structure (SMILES): CCN1CCC(n2cc3cc(-c4cc(F)c5nn(C)cc5c4)sc3n2)CC1 [Compound 149, 5-[2-(1-ethylpiperidin-4-yl)thieno[2,3-c]pyrazol-5-yl]-7-fluoro-2-methylindazole]
AC50 [4]: < 100 nM

IC50 [1]: < 100 nM | IC50 [2]: 100 to 1000 nM | IC50 [3]: 100 to 1000 nM | IC50 [4]: 100 to 1000 nM
Structure (SMILES): CC1CN(c2cc3sc(-c4cc(F)c5nn(C)cc5c4)nc3s2)CCN1 (stereo not drawn) [Compound 135, 7-fluoro-2-methyl-5-[5-(3-methylpiperazin-1-yl)thieno[2,3-d][1,3]thiazol-2-yl]indazole]
AC50 [4]: 100 to 1000 nM

IC50 [1]: < 100 nM | IC50 [2]: < 100 nM | IC50 [3]: < 100 nM | IC50 [4]: < 100 nM
Structure (SMILES): Cc1cn2nc(-n3cc4sc(C5CCNCC5)cc4n3)cc(C)c2n1 [Compound 101, 4-(2-[2,8-dimethylimidazo[1,2-b]pyridazin-6-yl]thieno[3,2-c]pyrazol-5-yl)piperidine]
AC50 [4]: 100 to 1000 nM

IC50 [1]: < 100 nM | IC50 [2]: 100 to 1000 nM | IC50 [3]: 1000 to 10000 nM | IC50 [4]: 100 to 1000 nM
Structure (SMILES): Cn1cc2cc(-c3nc4sc(N5CCNC(C)(C)C5)cc4s3)cc(F)c2n1 [Compound 142, 5-[5-(3,3-dimethylpiperazin-1-yl)thieno[2,3-d][1,3]thiazol-2-yl]-7-fluoro-2-methylindazole]
AC50 [4]: 100 to 1000 nM

IC50 [1]: < 100 nM | IC50 [2]: 100 to 1000 nM | IC50 [3]: 100 to 1000 nM | IC50 [4]: 100 to 1000 nM
Structure (SMILES): CN1CC2(C1)CN(c1cc3sc(-c4cc(F)c5nn(C)cc5c4)nc3s1)C2 [Compound 146, 7-fluoro-2-methyl-5-(5-[6-methyl-2,6-diazaspiro[3.3]heptan-2-yl]thieno[2,3-d][1,3]thiazol-2-yl)indazole]
AC50 [4]: 100 to 1000 nM

IC50 [1]: < 100 nM | IC50 [2]: < 100 nM | IC50 [3]: 100 to 1000 nM | IC50 [4]: < 100 nM
Structure (SMILES): Cn1cc2cc(-n3cc4cc(C5CCNCC5)sc4n3)cc(F)c2n1 [Compound 104, 7-fluoro-2-methyl-5-[5-(piperidin-4-yl)thieno[2,3-c]pyrazol-2-yl] indazole]
AC50 [4]: 100 to 1000 nM

IC50 [1]: < 100 nM | IC50 [2]: 100 to 1000 nM | IC50 [3]: 100 to 1000 nM | IC50 [4]: 100 to 1000 nM
Structure (SMILES): Cn1cc2cc(-c3cc4sc(C5CCNCC5)nc4s3)cc(F)c2n1 [Compound 124, 7-fluoro-2-methyl-5-[2-(piperidin-4-yl)thieno[2,3-d][1,3]thiazol-5-yl]indazole]
AC50 [4]: < 100 nM

IC50 [1]: < 100 nM | IC50 [2]: < 100 nM | IC50 [3]: 100 to 1000 nM | IC50 [4]: < 100 nM
Structure (SMILES): Cc1cn2nc(-c3cc4cn(C5CCNCC5)nc4s3)cc(C)c2n1 [Compound 162, 4-(5-{2,8-dimethylimidazo[1,2-b]pyridazin-6-yl}thieno[2,3-c]pyrazol-2-yl)piperidine]
AC50 [4]: < 100 nM

IC50 [1]: < 100 nM | IC50 [2]: 100 to 1000 nM | IC50 [3]: 1000 to 10000 nM | IC50 [4]: 100 to 1000 nM
Structure (SMILES): Cn1cc2cc(-c3nc4sc(N5CCNCC5)c(Cl)c4s3)cc(F)c2n1 [Compound 147]
AC50 [4]: 100 to 1000 nM
